Experiments:
Assay type in all cases: cell-based
CLR/RAMP2 receptor [1] = target: T1, CLR/RAMP2 receptor (Homo sapiens, UniProt O60895+Q16602); assay: CLR/RAMP2 arrestin assay, antagonist mode (ADM-stimulated)
Method: A cell line carrying the recombinant CLR/RAMP1, CLR/RAMP2, or a CLR/RAMP3 receptor was employed in the assay. Peptide agonist activities were tested, in duplicate, at 10 different concentrations, starting with 1.0 μM and serially diluted 3-fold, in DMSO. […] The CLR/RAMP1 CAMP, CLR/RAMP2 arrestin, and CLR/RAMP3 CAMP assays (DiscoveRx, Fremont, Calif.) were used.
For the analysis of antagonistic activity, synthetic analogs were pre-incubated with the cells before adding the reference ligand at its EC80. […] For antagonistic activity determination, cells were pre-incubated with antagonist followed by agonist challenge at the EC80 concentration. […] Then, 5 μL of 6× EC80 agonist in assay buffer was added to the cells and incubated at 37 C or room temperature for 90 or 180 minutes.
The microplates were read following signal generation with a PerkinElmer Envision™ instrument for chemiluminescent signal detection.
% Activity=100%×(mean RLU of test sample−mean RLU of vehicle control)/(mean MAX control ligand−mean RLU of vehicle control). For antagonistic activity assays, percentage inhibition was calculated using the following formula: % Inhibition=100%×(1−(mean RLU of test sample−mean RLU of vehicle control)/(mean RLU of EC80 control−mean RLU of vehicle control)).

CLR/RAMP1 receptor [2] = target: T2, CLR/RAMP1 receptor (Homo sapiens, UniProt O60894+Q16602); assay: CLR/RAMP1 cAMP assay, antagonist mode (CGRP-stimulated); conditions: for CLR/RAMP1 Max Activity % of positive control (antagonist): antagonist mode; for receptor selectivity of antagonists, in words: CLR/RAMP1 versus CLR/RAMP2
Method: A cell line carrying the recombinant CLR/RAMP1, CLR/RAMP2, or a CLR/RAMP3 receptor was employed in the assay. […] The CLR/RAMP1 CAMP, CLR/RAMP2 arrestin, and CLR/RAMP3 CAMP assays (DiscoveRx, Fremont, Calif.) were used.
For the analysis of antagonistic activity, synthetic analogs were pre-incubated with the cells before adding the reference ligand at its EC80. […] For the determination of antagonistic activity, cells were pre-incubated with sample followed by agonist challenge at the EC80 concentration. […] After appropriate compound incubation, assay signal was generated through incubation with 20 μL cAMP XS+ED/CL lysis cocktail for one hour followed by incubation with 20 μL cAMP XS+EA reagent for three hours at room temperature. Microplates were read following signal generation with a PerkinElmer Envision™ instrument for chemiluminescent signal detection.
For the antagonistic activity assay, percentage inhibition is calculated using the following formula: % Inhibition=100%×(1−(mean RLU of test sample−mean RLU of vehicle control)/(mean RLU of EC80 control−mean RLU of vehicle control)).

CLR/RAMP2 receptor [3] = target: T1, CLR/RAMP2 receptor; assay: CLR/RAMP2 arrestin receptor-activation assay (agonist mode); conditions: for CLR/RAMP2 Max Activity % of positive control: agonist mode, positive control ADM; for receptor selectivity of agonists, in words: CLR/RAMP2 versus CLR/RAMP1;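 on all read-outs here: agonist dose-response in recombinant cell lines stably expressing each receptor complex, duplicate wells over 10 threefold dilutions from a top concentration of 1.0 µM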
Method: (§1) Using a receptor activation assay, the dose-dependent stimulatory response of peptide agonists on a CLR/RAMP1 receptor, a CLR/RAMP2, or a CLR/RAMP3 receptor complex was determined. A cell line carrying the recombinant CLR/RAMP1, CLR/RAMP2, or a CLR/RAMP3 receptor was employed in the assay. Peptide agonist activities were tested, in duplicate, at 10 different concentrations, starting with 1.0 μM and serially diluted 3-fold, in DMSO. […] The CLR/RAMP1 CAMP, CLR/RAMP2 arrestin, and CLR/RAMP3 CAMP assays (DiscoveRx, Fremont, Calif.) were used.
(§2) The pharmacology of superagonistic activity of synthetic analogs was studied in cells that stably express CLR/RAMP1 (1321N1 cells), CLR/RAMP2 (CHO-K1 cells), or CLR/RAMP3 (CHO-K1 cells) receptors.
For the Arrestin assays, PathHunter cell lines (Discoverx Inc.) were expanded from freezer stocks, and seeded in a total volume of 20 μL into white walled, 384-well microplates and incubated at 37 C for the appropriate time prior to testing. For agonist determination, cells were incubated with sample to induce response. […] The microplates were read following signal generation with a PerkinElmer Envision™ instrument for chemiluminescent signal detection.
The compound activity was analyzed using a CBIS data analysis suite (ChemInnovation, CA). For agonist mode assays, percentage activity was calculated using the following formula:
% Activity=100%×(mean RLU of test sample−mean RLU of vehicle control)/(mean MAX control ligand−mean RLU of vehicle control).

CLR/RAMP1 receptor [4] = target: T2, CLR/RAMP1 receptor; assay: CLR/RAMP1 cAMP receptor-activation assay (agonist mode); conditions: for CLR/RAMP1 Max Activity % of positive control: agonist mode, positive control β-CGRP;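 on all read-outs here: Dose–response over 10 threefold dilutions from 1.0 µM, run in duplicate, luminescent cAMP detection (RLU), activity scaled between vehicle control (0%) and maximal control (100%)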
Method: as §1, §2
For the analysis of Gs-coupled CAMP production, cAMP Hunter cell lines were expanded from freezer stocks, and cells were seeded in a total volume of 20 μL into white walled, 384-well microplates and incubated at 37 C for the appropriate time prior to testing. The CAMP modulation was determined using the DiscoverX HitHunter CAMP XS+ assay. For agonistic activity determination, cells were incubated with sample to induce response. Media was aspirated from cells and replaced with 15 μL 2:1 HBSS/10 mM Hepes: CAMP XS+Ab reagent. […] For Gs-coupled agonistic assays, percentage activity is calculated using the following formula: % Activity=100%×(mean RLU of test sample−mean RLU of vehicle control)/(mean RLU of MAX control−mean RLU of vehicle control).

T1 sequence (Q16602 23-461): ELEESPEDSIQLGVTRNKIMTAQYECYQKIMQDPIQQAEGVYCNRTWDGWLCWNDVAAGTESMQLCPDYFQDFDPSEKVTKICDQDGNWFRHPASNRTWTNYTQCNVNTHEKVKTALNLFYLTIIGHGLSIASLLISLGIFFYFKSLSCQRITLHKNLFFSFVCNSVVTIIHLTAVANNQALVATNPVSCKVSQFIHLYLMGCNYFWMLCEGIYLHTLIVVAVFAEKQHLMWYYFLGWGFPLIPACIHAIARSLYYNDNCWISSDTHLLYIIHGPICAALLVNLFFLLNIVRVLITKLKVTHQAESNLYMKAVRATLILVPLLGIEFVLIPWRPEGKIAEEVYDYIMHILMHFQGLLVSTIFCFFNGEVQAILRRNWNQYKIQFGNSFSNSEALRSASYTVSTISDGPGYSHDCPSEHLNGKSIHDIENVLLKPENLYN
T1 sequence (O60895 43-175): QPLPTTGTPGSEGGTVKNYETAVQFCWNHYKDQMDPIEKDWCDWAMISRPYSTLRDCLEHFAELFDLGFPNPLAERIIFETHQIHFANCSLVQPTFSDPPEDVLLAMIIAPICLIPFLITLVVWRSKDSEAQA
T2 sequence (Q16602 23-461): as the sequence (Q16602 23-461) above
T2 sequence (O60894 27-148): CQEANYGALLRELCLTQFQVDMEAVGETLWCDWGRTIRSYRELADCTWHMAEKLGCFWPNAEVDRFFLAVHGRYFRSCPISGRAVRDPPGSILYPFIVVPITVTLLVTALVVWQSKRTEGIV

| Compound | CLR/RAMP2 Max Activity % of positive control (CLR/RAMP2 receptor [3]) | CLR/RAMP1 Max Activity % of positive control (CLR/RAMP1 receptor [4]) | other results |
| --- | --- | --- | --- |
| PEG2000-K[PAL]VQKLAHQIYQFTDKDSAPVDPSSPHSY-NH2 [SEQ ID NO: 191] |  |  | CLR/RAMP2 Max Activity % of positive control (antagonist) (CLR/RAMP2 receptor [1]): 101 % of positive control; CLR/RAMP1 Max Activity % of positive control (antagonist) (CLR/RAMP1 receptor [2]): 98 % of positive control |
| miniPEG-K(PAL)GCRFGTCTVQKLAHQIYQFTDKDKSAPVDPSSPHSY-NH2 [SEQ ID NO: 47] | 64 % of positive control | 85 % of positive control |  |
| Ace-PEG3-K([19-carboxy-nonadecanoyl]-isoGlu)GCRFGTCTVQKLAHQIYQFTDKDKDNVAPRSKISPQGY-NH2 [SEQ ID NO: 155] | 95 % of positive control | 81 % of positive control |  |
| miniPEG-K(PAL)GCRFGTCTVQKLAHQIYQFTDKGRQDSAPVDPSSPHSY-NH2 [SEQ ID NO: 68] | 70 % of positive control |  |  |
| Pal-KVQKLNFVPTNVGSKAF-NH2 [SEQ ID NO: 142] |  |  | CLR/RAMP2 Max Activity % of positive control (antagonist) (CLR/RAMP2 receptor [1]): 80 % of positive control; CLR/RAMP1 Max Activity % of positive control (antagonist) (CLR/RAMP1 receptor [2]): 100 % of positive control |
| PEG5000-K[PAL]VQKLAHQIYQFTDKDSAPVDPSSPHSY-NH2 [SEQ ID NO: 192] |  |  | CLR/RAMP2 Max Activity % of positive control (antagonist) (CLR/RAMP2 receptor [1]): 104 % of positive control; CLR/RAMP1 Max Activity % of positive control (antagonist) (CLR/RAMP1 receptor [2]): 101 % of positive control |
| Pyr(glu)-LYENKPRRPYIL-miniPEG-K(PAL)GCRFGTCTVQKLAHQIYQFTDKDVAPRSKISPQGY-NH2 [SEQ ID NO: 223] | 70 % of positive control | 102 % of positive control |  |
| miniPEG-K(PAL)GCRFGTCTVQKLAHQIYQFTDKDKDNVDPSSPHSY-NH2 [SEQ ID NO: 94] | 82 % of positive control | 67 % of positive control | receptor selectivity of agonists, in words (CLR/RAMP2 receptor [3]): CLR/RAMP2-selective |
| miniPEG-K(PAL)VQKLSAPVDPSSPHSY-NH2 [SEQ ID NO: 140] |  |  | CLR/RAMP2 Max Activity % of positive control (antagonist) (CLR/RAMP2 receptor [1]): 90 % of positive control; receptor selectivity of antagonists, in words (CLR/RAMP1 receptor [2]): CLR/RAMP1-selective; CLR/RAMP1 Max Activity % of positive control (antagonist) (CLR/RAMP1 receptor [2]): 100 % of positive control |
| Ace-PEG3-K(Hexadecanoyl-isoGlu-PEG3)GCRFGTCTVQKLAHQIYQFTDKDKDNVAPRSKISPQGY-NH2 [SEQ ID NO: 152] | 132 % of positive control | 80 % of positive control |  |
| miniPEG-K(PAL)GCRFGTCTVQKLAHQIYQFTDKDVAPRSKISP(D-Gln)GY-NH2 [SEQ ID NO: 214] | 99 % of positive control | 112 % of positive control | receptor selectivity of agonists, in words (CLR/RAMP2 receptor [3]): CLR/RAMP2-selective |
| miniPEG-K(PAL)GCRFGTCT(D-Val)QKLAHQIYQFTDKDVAPRSKISPQGY-NH2 [SEQ ID NO: 211] | 22 % of positive control | 91 % of positive control | receptor selectivity of agonists, in words (CLR/RAMP2 receptor [3]): CLR/RAMP2-selective |
| Ace-YGGFLRRIRPKLK-miniPEG-K(Pal)VQKLSAPVDPSSPHSY-NH2 [SEQ ID NO: 146] |  |  | CLR/RAMP2 Max Activity % of positive control (antagonist) (CLR/RAMP2 receptor [1]): 98 % of positive control; receptor selectivity of antagonists, in words (CLR/RAMP1 receptor [2]): CLR/RAMP1-selective; CLR/RAMP1 Max Activity % of positive control (antagonist) (CLR/RAMP1 receptor [2]): 102 % of positive control |
| CSCC[C@H](NC(=O)CNC(=O)CNC(=O)[C@H](CO)NC(=O)[C@H](CCCNC(=N)N)NC(=O)[C@H](CO)NC(=O)[C@H](CC(C)C)NC(=O)[C@H](CC(C)C)NC(=O)CNC(=O)[C@H](C)NC(=O)[C@H](CC(C)C)NC(=O)[C@H](CCCNC(=N)N)NC(=O)[C@H](Cc1c[nH]cn1)NC(=O)[C@@H](NC(=O)[C@@H](NC(=O)[C@@H]1CSSC[C@H](NC(=O)[C@H](C)N)C(=O)N[C@@H](CC(N)=O)C(=O)N[C@@H]([C@@H](C)O)C(=O)N[C@@H](C)C(=O)N[C@@H]([C@@H](C)O)C(=O)N1)C(C)C)[C@@H](C)O)C(=O)N[C@H](C(=O)N[C@@H](CCCCN)C(=O)N[C@@H](CO)C(=O)N[C@@H](CC(N)=O)C(=O)N[C@@H](Cc1ccccc1)C(=O)N[C@H](C(=O)N1CCC[C@H]1C(=O)N[C@H](C(=O)N[C@@H](CC(N)=O)C(=O)N[C@H](C(=O)NCC(=O)N[C@@H](CO)C(=O)N[C@@H](CCCCN)C(=O)N[C@@H](C)C(=O)N[C@@H](Cc1ccccc1)C(N)=O)C(C)C)[C@@H](C)O)C(C)C)C(C)C [SEQ ID NO: 143, reference compound] |  | 103 % of positive control |  |
| Ace-PEG3-K([19-carboxy-nonadecanoyl]-isoGlu-Peg3-Peg3)GCRFGTCTVQKLAHQIYQFTDKDKDNVAPRSKISPQGY-NH2 [SEQ ID NO: 157] | 95 % of positive control | 100 % of positive control |  |
| Ace-KRPPGFSPFR-miniPEG-K(Pal)VQKLAHQIYQFTDKDVAPRSKISPQGY-NH2 [SEQ ID NO: 149] |  |  | CLR/RAMP2 Max Activity % of positive control (antagonist) (CLR/RAMP2 receptor [1]): 99 % of positive control; receptor selectivity of antagonists, in words (CLR/RAMP1 receptor [2]): pan-specific; CLR/RAMP1 Max Activity % of positive control (antagonist) (CLR/RAMP1 receptor [2]): 101 % of positive control |
| miniPEG-K(PAL)CRFGTCTVQKLAHQIYQFTDKDKDNSAPVDPSSPHSY-NH2 [SEQ ID NO: 43] | 30 % of positive control | 39 % of positive control |  |
| Ace-RPKPQQFFGLM-miniPEG-K(PAL)GCRFGTCTVQKLAHQIYQFTDKDSAPVDPSSPHSY-NH2 [SEQ ID NO: 147] | 90 % of positive control | 109 % of positive control |  |

| Compound | CLR/RAMP2 Max Activity % of positive control (CLR/RAMP2 receptor [3]) | CLR/RAMP1 Max Activity % of positive control (CLR/RAMP1 receptor [4]) | other results |
| --- | --- | --- | --- |
| Ace-PEG3-K(Hexadecanoyl-PEG3-isoGlu)GCRFGTCTVQKLAHQIYQFTDKDKDNVAPRSKISPQGY-NH2 [SEQ ID NO: 154] | 112 % of positive control | 83 % of positive control |  |
| Human β-CGRP [Wild type CGRP-β positive, reference compound] |  | 100 % of positive control |  |
| Ace-PEG3-K([19-carboxy-nonadecanoyl]-PEG3-isoGlu)GCRFGTCTVQKLAHQIYQFTDKDKDNVAPRSKISPQGY-NH2 [SEQ ID NO: 156] | 91 % of positive control | 88 % of positive control |  |
| miniPEG-K(PAL)GCRFGTCTVQKLAHQIYQFTDKDVAPR(D-Ser)KISPQGY-NH2 [SEQ ID NO: 213] | 107 % of positive control | 115 % of positive control |  |
| Ace-PEG3-K(Hexadecanoyl-isoGlu)GCRFGTCTVQKLAHQIYQFTDKDKDNVAPRSKISPQGY-NH2 [SEQ ID NO: 151] | 134 % of positive control | 85 % of positive control |  |
| miniPEG-K(PAL)GCRFGTCTVQKLAHQIYQFTDKDKQDSAPVDPSSPHSY-NH2 [SEQ ID NO: 51] | 107 % of positive control | 65 % of positive control |  |
| AcePEG3--K([17-carboxy-heptadecanoyl]-isoGlu-Peg3-Peg3)GCRFGTCTVQKLAHQIYQFTDKDKDNVAPRSKISPQGY-NH2 [SEQ ID NO: 158] | 113 % of positive control | 95 % of positive control |  |
| Ace-PEG3-K([19-carboxy-nonadecanoyl]-isoGlu-PEG3)GCRFGTCTVQKLAHQIYQFTDKDVAPRSKISPQGY-NH2 [SEQ ID NO: 159] | 60 % of positive control | 90 % of positive control |  |
| Ace-FGCRFGTCTVQKLAHQIYQFTDKDKDNVAPRSKISPQGY-NH2 [SEQ ID NO: 53, reference compound] | 102 % of positive control | 69 % of positive control | agonistic potency for CLR/RAMP1 and/or CLR/RAMP2 receptors, in words (CLR/RAMP1 receptor [4]; CLR/RAMP1 and/or CLR/RAMP2): low potency ligands |
| miniPEG-K(PAL)GCRFGTC(D-Thr)VQKLAHQIYQFTDKDVAPRSKISPQGY-NH2 [SEQ ID NO: 210] | 47 % of positive control | 77 % of positive control | receptor selectivity of agonists, in words (CLR/RAMP2 receptor [3]): CLR/RAMP2-selective |
| miniPEG-TK(Pal)KTLRTGCRFGTCTVQKLAHQIYQFTDKDKDNVAPVDPSSPHSY-NH2 [SEQ ID NO: 42] | 76 % of positive control | 56 % of positive control |  |
| Ace-PEG12-PEG12-K([19-carboxy-nonadecanoyl]-isoGlu-PEG3)GCRFGTCTVQKLAHQIYQFTDKDKDNVAPRSKISPQGY-NH2 [SEQ ID NO: 150] | 60 % of positive control | 94 % of positive control |  |
| miniPEG-K(PAL)TKKTLRTGCRFGTCTVQKLAHQIYQFTDKDKDNVAPRSKISPQGY-NH2 [SEQ ID NO: 70] | 68 % of positive control | 69 % of positive control |  |
| miniPEG-K(PAL)GCRFGTCTVQKLAHQIYQFTDKDKDSAPVDPSSPHSY-NH2 [SEQ ID NO: 46] | 104 % of positive control | 60 % of positive control |  |
| Ace-PEG3-K(Hexadecanoyl-isoGlu-PEG3-PEG3)GCRFGTCTVQKLAHQIYQFTDKDKDNVAPRSKISPQGY-NH2 [SEQ ID NO: 153] | 108 % of positive control | 78 % of positive control |  |
| miniPEG-K(PAL)GCRFGTCTVQKLAHQIYQFTDKDKDNVAPVDPSSPHSY-NH2 [SEQ ID NO: 50] | 87 % of positive control | 65 % of positive control |  |
| miniPEG-K(PAL)GCRFGTCTVQKLAHQIYQFTDKDKDNVAPRSKSSPHSY-NH2 [SEQ ID NO: 61] | 92 % of positive control | 70 % of positive control |  |

From patent US20250154219A1, “PEPTIDE ANALOGS” (Adepthera LLC, priority 2017, published 2025)
